In patent US6143764A, “Quinoline and quinazoline derivatives inhibiting platelet-derived growth factor receptor autophosphorylation and pharmaceutical compositions containing the same” (priority 1995, dated 2000):
Like-named read-outs stand apart in the source and are kept apart here.

Legend:
human glioma (GLO7) = experiment: Antitumor effect of the compounds against human glioma (GLO7), nude mice xenograft; assay type: in vivo; conditions: Mus musculus, po, 216 h, read-out: Tumor growth inhibition rate (TGIR)
Description: Analogously to 2, human glioma cells, GLO7 (obtained from the Central Institute for Experimental Animals), was transplanted into nude mice. When the tumor had grown to a volume of about 100 mm^3, the nude mice were divided into several groups of 4 animals so as to equalize the average tumor volumes of each group. The test drug was administered orally to animals in experimental groups once a day for 9 consecutive days at 50 mg/kg, and the vehicle was administered to control animals. The tumor growth inhibition rate (TGIR, %) was calculated from the equation: TGIR=(1-Tx/Cx)×100, in which Cx is the tumor volume in the control mice and Tx is the tumor volume in the drug-treated mice, on day X, when the initial tumor volume at the time treatment was commenced is set 1.

PDGF receptor = molecular target: T1, PDGF receptor (Rattus norvegicus, UniProt Q05030); experiment: PDGF receptor autophosphorylation inhibition in cultured rat mesangial cells; assay type: cell-based; conditions: PDGF-BB 50 ng/ml
T1 construct: cultured rat mesangial cells which are known to have the PDGF receptor; endogenous in cells; host or cells: primary mesangial cells cultured from glomeruli of Wistar-Kyoto rats (Charles River Japan), more than 5 passages
T1 sequence (Q05030 32-1097): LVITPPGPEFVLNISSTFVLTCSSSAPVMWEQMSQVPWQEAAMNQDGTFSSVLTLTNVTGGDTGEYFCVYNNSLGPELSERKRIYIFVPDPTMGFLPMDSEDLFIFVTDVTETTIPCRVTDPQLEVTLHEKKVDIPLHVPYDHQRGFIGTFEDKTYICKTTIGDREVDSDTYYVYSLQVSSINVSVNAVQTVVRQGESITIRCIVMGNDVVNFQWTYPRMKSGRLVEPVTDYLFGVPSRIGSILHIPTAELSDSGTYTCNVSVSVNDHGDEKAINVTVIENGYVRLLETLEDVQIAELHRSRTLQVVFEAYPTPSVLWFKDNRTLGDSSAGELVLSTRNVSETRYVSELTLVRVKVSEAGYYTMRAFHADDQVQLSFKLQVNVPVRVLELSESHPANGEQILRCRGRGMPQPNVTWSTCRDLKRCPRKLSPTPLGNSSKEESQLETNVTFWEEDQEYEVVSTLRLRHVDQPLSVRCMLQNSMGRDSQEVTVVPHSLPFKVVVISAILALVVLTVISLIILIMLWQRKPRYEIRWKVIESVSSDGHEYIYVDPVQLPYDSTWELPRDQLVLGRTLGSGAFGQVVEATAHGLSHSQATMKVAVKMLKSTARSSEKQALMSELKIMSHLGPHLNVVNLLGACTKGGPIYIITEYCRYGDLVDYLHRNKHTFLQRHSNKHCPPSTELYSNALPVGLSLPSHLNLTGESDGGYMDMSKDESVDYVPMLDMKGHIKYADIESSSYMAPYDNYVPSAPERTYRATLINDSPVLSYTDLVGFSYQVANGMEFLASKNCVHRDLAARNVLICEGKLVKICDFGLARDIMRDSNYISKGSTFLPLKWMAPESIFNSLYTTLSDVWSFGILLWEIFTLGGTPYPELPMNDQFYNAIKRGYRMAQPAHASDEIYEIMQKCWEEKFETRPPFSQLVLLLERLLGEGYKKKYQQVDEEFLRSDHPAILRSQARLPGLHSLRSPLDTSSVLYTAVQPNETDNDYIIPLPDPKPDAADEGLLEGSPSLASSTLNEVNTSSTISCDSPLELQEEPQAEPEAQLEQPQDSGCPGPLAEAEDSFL
Description: 1. Cultivation of rat mesangial cells
The glomerulus-derived adhesive cells were subcultured several times to obtain mesangial cells. The mesangial cells subcultured more than 5 passages were used for the assay.
2.Evaluation of PDGF receptor autophosphorylation inhibition
The mesangial cells were seeded in 24-well flat-bottom microtiter plates and then cultured in the medium containing 10% FCS for 2 days. When the cells were grown to about 3×10^4 cells per well, the medium was changed to the medium containing 0.5% FCS, the cultivation was continued for another 3 days, and then cell growth was arrested. The culture medium was removed, the adhered cells were washed with 500 μl of the medium, and 250 μl of the medium containing 0.1% bovine serum albumin (hereinafter abbreviated to BSA) was then added. A test drug dissolved in 1.38 μl of dimethyl sulfoxide (hereinafter abbreviated to DMSO) was added to this culture medium, and the admixture was incubated at 37° C. for 1 hour. Recombinant human platelet-derived growth factor BB chain (hereinafter abbreviated to PDGF-BB) was dissolved in the medium containing 0.1% BSA, 25 μl per well of the solution was added at final 50 ng/ml, and the incubation was continued at 37° C. for 10 minutes. […] The cells were allowed to stand at 4° C. for 30 minutes for lysis, and the resulting solution was thoroughly admixed with an equal amount of Tris-buffered physiological saline containing 1% sodium dodecyl sulfate (hereinafter abbreviated to SDS). […] After the electrophoresis, proteins in the gel were electrically transferred to a PVDF filter, which was then subjected to Western blotting using monoclonal antibodies against phosphotyrosine. Bands of PDGF receptor (molecular weight: about 180 Kda) which were autophosphorylated due to the addition of PDGF-BB were quantitated by a densitometer. Autophosphorylation rates for individual wells with drugs were calculated by setting measurements for PDGF receptor autophosphorylation in the wells without drugs in the presence and absence of PDGF-BB as 100% and 0%, respectively.

[1] = nude mice, 50 mg/kg orally once a day, 9 days

Row | Compound | inhibition in vivo at 50 mg/kg (human glioma (GLO7); [1]) [%] | IC50 (PDGF receptor) [nM] | inhibition in vivo at 50 mg/kg (human glioma (GLO7)) [%]
1 | COc1cc2nccc(Oc3ccc(NC(=O)Nc4cc(C(F)(F)F)ccc4C(F)(F)F)cc3)c2cc1OC [Compound 264, N-(2,5-Bis(trifluoromethyl)phenyl]-N'-{4-[(6,7-dimethoxy-4-quinolyl)oxy]phenyl}urea] | 63 | – | –
2 | COc1cc2nccc(Oc3ccc(NC(=O)Nc4ccccc4N(C)C)cc3)c2cc1OC [Compound 191] | 50 | – | –
3 | COc1cc2nccc(Oc3ccc(NC(=O)Nc4cccc(F)c4)cc3)c2cc1OC [Compound 59] | 82 | 4 | –
4 | COc1cc2nccc(Oc3ccc(NC(=O)Nc4ccc(Cl)cc4Cl)cc3)c2cc1OC [Compound 229, N-(2,4-Dichlorophenyl)-N'-{4-[(6,7-dimethoxy-4-quinolyl)oxy]phenyl}urea] | – | – | 81
5 | COc1cc2nccc(Oc3ccc(NC(=O)Nc4ccc(Cl)cc4)cc3)c2cc1OC [Compound 165, N-(4-Chlorophenyl)-N'-{4-[(6,7-dimethoxy-4-quinolyl)oxy]phenyl}urea] | – | – | 70
6 | COc1cc2nccc(Oc3ccc(NC(=O)Nc4ccc(F)cc4F)cc3)c2cc1OC [Compound 272, N-(2,4-Difluorophenyl)-N'-{4-[(6,7-dimethoxy-4-quinolyl)oxy]phenyl}urea] | 84 | 3 | –
7 | COc1cc2nccc(Oc3ccc(NC(=O)Nc4cc(F)c(F)cc4F)cc3)c2cc1OC [Compound 255, N-(2,4,5-Trifluorophenyl)-N'-{4-[(6,7-dimethoxy-4-quinolyl)oxy]phenyl}urea] | 86 | 15 | –
8 | COc1cc2nccc(Oc3ccc(NC(=O)Nc4ccc(Cl)c(N)c4)cc3)c2cc1OC [Compound 244, N-(3-Amino-4-chlorophenyl)-N'-{4-[(6,7-dimethoxy-4-quinolyl)oxy]phenyl}urea] | 73 | 9 | –
9 | COc1cc2nccc(Oc3ccc(NC(=O)Nc4cccc(Cl)c4OC)cc3)c2cc1OC [Compound 225, N-(3-Chloro-2-methoxyphenyl)-N'-{4-[(6,7-dimethoxy-4-quinolyl)oxy]phenyl}urea] | 58 | 47 | –
10 | COc1cc2nccc(Oc3ccc(NC(=O)Nc4cc(Cl)cc(Cl)c4)cc3)c2cc1OC [Compound 237, N-(3,5-Dichlorophenyl)-N'-{4-[(6,7-dimethoxy-4-quinolyl)oxy]phenyl}urea] | – | – | 74
11 | COc1cc2nccc(Oc3ccc(NC(=O)Nc4ccc(C(F)(F)F)cc4)cc3)c2cc1OC [Compound 52, N-(4-Trifluoromethylphenyl)-N'-{4-[(6,7-dimethoxy-4-quinolinyl)oxy]phenyl}urea] | 86 | 30 | –
12 | COc1cc2nccc(Oc3ccc(NC(=O)Nc4cccc(F)c4F)cc3)c2cc1OC [Compound 260, N-(2,3-Difluorophenyl)-N'-{4-[(6,7-dimethoxy-4-quinolyl)oxy]phenyl}urea] | 52 | 2 | –
13 | COc1cc2nccc(Oc3ccc(NC(=O)Nc4ccc(F)c(F)c4)cc3)c2cc1OC [Compound 254, N-(3,4-Difluorophenyl)-N'-(4-[(6,7-dimethoxy-4-quinolyl)oxy]phenyl)urea] | 85 | 7 | –
14 | COc1cc2nccc(Oc3ccc(NC(=O)Nc4ccccc4C)cc3)c2cc1OC [Compound 56, N-{4-[(6,7-Dimethoxy-4-quinolyl)oxy]phenyl}-N'-(2-methylphenyl)urea] | 52 | 4 | –
15 | COc1cc2nccc(Oc3ccc(NC(=O)Nc4ccc(Cl)cc4C)cc3)c2cc1OC [Compound 242, N-(4-Chloro-2-methylphenyl)-N'-{4-[(6,7-dimethoxy-4-quinolyl)oxy]phenyl}urea] | 62 | 18 | –
16 | CCOC(=O)NC(=O)Nc1ccc(Oc2ccnc3cc(OC)c(OC)cc23)cc1 [Compound 190, N-Ethoxycarbonyl-N'-{4-[(6,7-Dimethoxy-4-quinolyl)oxy]phenyl}urea] | 50 | 21 | –

Row | Compound | inhibition in vivo at 50 mg/kg (human glioma (GLO7); [1]) [%] | IC50 (PDGF receptor) [nM] | inhibition in vivo at 50 mg/kg (human glioma (GLO7)) [%]
17 | CCCNC(=O)Nc1ccc(Oc2ccnc3cc(OC)c(OC)cc23)cc1 [Compound 194, N-{4-[(6,7-Dimethoxy-4-quinolyl)oxy]phenyl}-N'-propylurea] | 59 | 14 | –
18 | COc1cc2nccc(Oc3ccc(NC(=O)Nc4ccc(Cl)c(Cl)c4)cc3)c2cc1OC [Compound 236, N-(3,4-Dichlorophenyl)-N'-[4-[(6,7-dimethoxy-4-quinolyl)oxy]phenyl}urea] | – | – | 84
19 | COc1cc2nccc(Oc3ccc(NC(=O)Nc4ccc(Br)cc4)cc3)c2cc1OC [Compound 45, N-(4-Bromophenyl)-N'-{4-[(6,7-dimethoxy-4-quinolinyl)oxy]phenyl}urea] | 68 | 14 | –
20 | COc1cc2nccc(Oc3ccc(NC(=O)Nc4cc(Cl)ccc4Cl)cc3)c2cc1OC [Compound 235] | – | – | 78
21 | COc1ccccc1NC(=O)Nc1ccc(Oc2ccnc3cc(OC)c(OC)cc23)cc1 [Compound 57] | 64 | 6 | –
22 | COc1cc2nccc(Oc3ccc(NC(=O)Nc4ccccc4[N+](=O)[O-])cc3)c2cc1OC [Compound 168, N-{4-[(6,7-Dimethoxy-4-quinolyl)oxy]phenyl}-N'-(2-nitrophenyl)urea] | 56 | 6 | –
23 | COc1cc2nccc(Oc3ccc(NC(=O)Nc4c(F)ccc(F)c4F)cc3)c2cc1OC [Compound 262, N-(2,3,6-Trifluorophenyl)-N'-{4-[(6,7-dimethoxy-4-quinolyl)oxy]phenyl}urea] | 87 | 2 | –
24 | COc1ccc(Cl)cc1NC(=O)Nc1ccc(Oc2ccnc3cc(OC)c(OC)cc23)cc1 [Compound 227, N-(3-Chloro-6-methoxyphenyl)-N'-{4-[(6,7-dimethoxy-4-quinolyl)oxy]phenyl}urea] | 78 | 73 | –
25 | COc1cc2nccc(Oc3ccc(NC(=O)Nc4cccc(Cl)c4)cc3)c2cc1OC [Compound 267, N-(3-Chlorophenyl)-N'-{4-[(6,7-dimethoxy-4-quinolyl)oxy]phenyl}urea] | 65 | 150 | –
26 | C=CCNC(=O)Nc1ccc(Oc2ccnc3cc(OC)c(OC)cc23)cc1 [Compound 173, N-Allyl-N'-{4-[(6,7-dimethoxy-4-quinolyl)oxy]phenyl}urea] | 54 | 16 | –
27 | COc1cc2nccc(Oc3ccc(NC(=O)Nc4ccc(F)cc4)cc3)c2cc1OC [Compound 44, N-(4-Fluorophenyl)-N'-{4-[(6,7-dimethoxy-4-quinolinyl)oxy]phenyl}urea] | 78 | 6 | –
28 | COc1cc2nccc(Oc3ccc(NC(=O)Nc4ccc([N+](=O)[O-])cc4Cl)cc3)c2cc1OC [Compound 224, N-(2-Chloro-4-nitrophenyl)-N'-{4-[(6,7-dimethoxy-4-quinolyl)oxy]phenyl}urea] | – | 87 | –
29 | N-(2-Chloro-3-methylphenyl)-N'-{4-[(6,7-dimethoxy-4-quinolyl)oxy]phenyl}urea [Compound 243] | – | 14 | –
30 | COc1cc2nccc(Oc3ccc(NC(=O)Nc4ccccc4)cc3)c2cc1OC [Compound 167, N-{4-[(6,7-Dimethoxy-4-quinolyl)oxy]phenyl}-N'-phenylurea] | – | 4 | –
31 | COc1cc2nccc(Oc3ccc(NC(=O)Nc4c(F)cc(F)cc4F)cc3)c2cc1OC [Compound 256, N-(2,4,6-Trifluorophenyl)-N'-{4-[(6,7-dimethoxy-4-quinolyl)oxy]phenyl}urea] | – | 4 | –
32 | COc1cc2nccc(Oc3ccc(NC(=O)Nc4ccc(OC(C)=O)cc4)cc3)c2cc1OC [Compound 270, N-(4-Acetoxyphenyl)-N'-{4-[(6,7-dimethoxy-4-quinolyl)oxy]phenyl}urea] | – | 6 | –
